A word on the inhibition: it is the drop in the measured response relative to a control, in per cent.

Results on 14 compounds are retold here after patent US8124624B2, “Substituted sulfonamide compounds” (Gruenenthal GmbH, priority 2008, dated 2012).

Like-named read-outs stand apart in the source and are kept apart here.

In one test the target is T1, B1R of the rat (Rattus norvegicus, UniProt P97583).
T1 construct: expressed in transfected cells; host or cells: CHO K1 cells (rB1R cells)
T1 sequence (P97583 1-337): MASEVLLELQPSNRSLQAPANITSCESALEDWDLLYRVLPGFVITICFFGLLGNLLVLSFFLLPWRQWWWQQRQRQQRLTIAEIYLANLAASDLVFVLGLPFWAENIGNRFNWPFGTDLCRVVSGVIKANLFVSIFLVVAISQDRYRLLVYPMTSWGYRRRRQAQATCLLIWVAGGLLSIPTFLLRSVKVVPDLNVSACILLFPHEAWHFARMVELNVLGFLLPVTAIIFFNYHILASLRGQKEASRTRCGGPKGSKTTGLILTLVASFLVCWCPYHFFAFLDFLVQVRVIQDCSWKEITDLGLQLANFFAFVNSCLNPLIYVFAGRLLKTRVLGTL
Briefly: FLIPR Ca2+ influx assay, B1R antagonism, rat (rB1R CHO K1 cells). In kind it is cell-based. The protocol: (§1) The agonistic or antagonistic action of substances can be quantified on the bradykinin receptor 1 (B1R) of the species human and rat using ectopically expressing cell lines (CHO K1 cells) and with the aid of a Ca^2+-sensitive dye (Fluo-4) using a fluorescent imaging plate reader (FLIPR). The indication in % activation is based on the Ca^2+ signal after addition of Lys-Des-Arg^9-bradykinin (0.5 nM) or Des-Arg^9-bradykinin (100 nM). Antagonists lead to suppression of the Ca^2+ influx after the addition of the agonist. % Inhibition compared with the maximum achievable inhibition is indicated.
(§2) The agonistic or antagonistic action of substances can be determined on the bradykinin receptor 1 (B1R) of the species human and rat using the following assay. According to this assay, the Ca^2+ influx through the channel is quantified with the aid of a Ca^2+-sensitive dye (Fluo-4 type, Molecular Probes Europe BV, Leiden, Netherlands) using a Fluorescent Imaging Plate Reader (FLIPR, Molecular Devices, Sunnyvale, USA).
(§3) Chinese hamster ovary cells (CHO K1 cells) which have been stably transfected with the human B1R gene (hB1R cells) or with the B1R gene of the rat (rB1R cells) are used. For functional studies, the cells are plated out on black 96-well plates having a clear base (BD Biosciences, Heidelberg, Germany or Greiner, Frickenhausen, Germany) in a density of 20,000-35,000 cells/well. The cells are incubated overnight at 37° C. and with 5% CO2 in culture medium (hB1R cells: Nutrient Mixture Ham's F12, Gibco Invitrogen GmbH, Karlsruhe, Germany or DMEM, Sigma-Aldrich, Taufkirchen, Germany; rB1R cells: D-MEM/F12, Gibco Invitrogen GmbH, Karlsruhe, Germany), with 10 vol. % FBS (fetal bovine serum, Gibco Invitrogen GmbH, Karlsruhe, Germany or PAN Biotech GmbH, Aidenbach, Germany).
(§4) On the following day, the cells are loaded for 60 minutes at 37° C. with 2.13 μM Fluo-4 (Molecular Probes Europe BV, Leiden, Netherlands) in HBSS buffer (Hank's buffered saline solution, Gibco Invitrogen GmbH, Karlsruhe, Germany) […] (Sigma-Aldrich, Taufkirchen, Germany) and 10 mM HEPES (Sigma-Aldrich, Taufkirchen, Germany). The plates are then washed twice with HBSS buffer, and HBSS buffer additionally containing 0.1% BSA (bovine serum albumin; Sigma-Aldrich, Taufkirchen, Germany), 5.6 mM glucose and 0.05% gelatin (Merck KGaA, Darmstadt, Germany) is added to the plates. After incubation for a further 20 minutes at room temperature, the plates are inserted into the FLIPR for Ca^2+ measurement.
(§5) Alternatively, washing is carried out with buffer A (15 mM HEPES, 80 mM NaCl, 5 mM KCl, 1.2 mM CaCl2, 0.7 mM MgSO4, 2 g/l glucose, 2.5 mM probenecid) followed by loading with buffer A with added 2.5 μM Fluo-4 and 0.025% Pluronic F127 (Sigma-Aldrich, Taufkirchen, Germany). The cells are then washed twice with buffer A and incubated for 30 minutes at room temperature with buffer A additionally containing 0.05% BSA and 0.05% gelatin and are then inserted into the FLIPR for Ca^2+ measurement.
(§6) The Ca^2+-dependent fluorescence is measured before and after the addition of substances (λex=488 nm, λem=540 nm). Quantification is carried out by measuring the highest fluorescence intensity (FC, fluorescence counts) over time.
(§7) The FLIPR protocol consists of two substance additions. Test substances (10 μM) are first pipetted onto the cells and the Ca^2+ influx is compared with the control (hB1R: Lys-Des-Arg^9-bradykinin >=50 nM; rB1R: Des-Arg^9-bradykinin 10 μM). This gives the activation in %, based on the Ca^2+ signal after addition of Lys-Des-Arg^9-bradykinin (>=50 nM) or Des-Arg^9-bradykinin (10 μM). After 10-20 minutes' incubation, Lys-Des-Arg^9-bradykinin (hB1R) or Des-Arg^9-bradykinin (rB1R) is applied in the concentration of the EC80, and the influx of Ca^2+ is likewise determined. Antagonists lead to suppression of the Ca^2+ influx. The % inhibition compared with the maximum achievable inhibition is calculated. […]

The target of the next test is T2, human B1R (Homo sapiens, UniProt P46663).
T2 construct: expressed in transfected cells; host or cells: CHO K1 cells (hB1R cells)
T2 sequence (P46663 1-353): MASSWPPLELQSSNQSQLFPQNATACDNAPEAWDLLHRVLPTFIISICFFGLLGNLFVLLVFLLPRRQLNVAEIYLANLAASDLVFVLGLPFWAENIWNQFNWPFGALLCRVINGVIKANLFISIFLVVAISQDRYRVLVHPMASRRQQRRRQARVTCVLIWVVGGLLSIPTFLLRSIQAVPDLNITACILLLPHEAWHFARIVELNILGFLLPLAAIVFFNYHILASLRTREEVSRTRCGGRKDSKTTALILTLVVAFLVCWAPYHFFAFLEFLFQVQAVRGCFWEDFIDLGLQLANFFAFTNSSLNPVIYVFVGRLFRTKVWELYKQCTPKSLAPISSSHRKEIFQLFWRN
The test can be described thus: FLIPR Ca2+ influx assay, B1R antagonism, human (hB1R CHO K1 cells). It counts as cell-based. The protocol:
as §1, §2, §3, §4, §5, §6, §7

The mark [1] stands for this setting: CHO-K1, read-out: B1R antagonism, rat [10 μM] % inhibition.
[2] abbreviates: CHO-K1, read-out: B1R antagonism, human [10 μM] % inhibition.
Where [3] appears, read: test substance 10 μM, CHO K1 cells stably transfected with rat B1R, agonist Des-Arg9-bradykinin at EC80, % inhibition compared with maximum achievable inhibition, read-out: B1R antagonism, rat [10 μM] % inhibition.
Where [4] appears, read: test substance 10 μM, CHO K1 cells stably transfected with human B1R, agonist Lys-Des-Arg9-bradykinin at EC80, % inhibition compared with maximum achievable inhibition, read-out: B1R antagonism, human [10 μM] % inhibition.

On to `COc1cc(C)c(S(=O)(=O)N2CCCCC2COCC(=O)N2CCC(CCN3CCCC3)(c3cccnc3)CC2)c(C)c1` (stereo not shown) [Example 2, 2-((1-(4-Methoxy-2,6-dimethylphenylsulfonyl)piperidin-2-yl)methoxy)-1-(4-(pyridin-3-yl)-4-(2-(pyrrolidin-1-yl)ethyl)piperidin-1-yl)ethanone], for which the inhibition at 10 µM at B1R of the rat (setting [1]) is 102%; on human B1R (setting [2]), 103%.

Consider `COc1cc(C)c(S(=O)(=O)N(C)CCOCC(=O)N2CCC(CCN3CCCC3)(c3cccnc3)CC2)c(C)c1` [Example 3, 4-Methoxy-N,2,6-trimethyl-N-(2-(2-oxo-2-(4-(pyridin-3-yl)-4-(2-(pyrrolidin-1-yl)ethyl)piperidin-1-yl)ethoxy)ethyl)benzenesulfonamide], for which the inhibition at 10 µM on B1R of the rat (setting [1]) was 101%; at human B1R (setting [2]) it was 103%.

Regarding `O=C(CC1CCCCN1S(=O)(=O)c1cccc(C(F)(F)F)c1)N1CCC(CCN2CCCC2)(c2cccnc2)CC1` (stereo not shown) [Example 4, 1-(4-(Pyridin-3-yl)-4-(2-(pyrrolidin-1-yl)ethyl)piperidin-1-yl)-2-(1-(3-(trifluoromethyl)phenylsulfonyl)piperidin-2-yl)ethanone], the inhibition at 10 µM on B1R of the rat (setting [1]) turned out to be 102%; at human B1R (setting [2]), 103%.

With `Cc1cc(S(=O)(=O)N2CCCCC2CCC(=O)N2CCC(CCN3CCCC3)(c3cccnc3)CC2)c(C)cc1Cl` (stereo not shown) [Example 5, 3-(1-(4-Chloro-2,5-dimethylphenylsulfonyl)piperidin-2-yl)-1-(4-(pyridin-3-yl)-4-(2-(pyrrolidin-1-yl)ethyl)piperidin-1-yl)propan-1-one], the figures for the inhibition at 10 µM at B1R of the rat (setting [3]) and at human B1R (setting [4]) were 61% and 101%, respectively.

As to `O=C(COCC1CCc2ccccc2N1S(=O)(=O)c1ccc(Cl)c(Cl)c1)N1CCC(CCN2CCCC2)(c2cccnc2)CC1` (stereo not shown) [Example 6, 2-((1-(3,4-Dichlorophenylsulfonyl)-1,2,3,4-tetrahydroquinolin-2-yl)methoxy)-1-(4-(pyridin-3-yl)-4-(2-(pyrrolidin-1-yl)ethyl)piperidin-1-yl)ethanone], the inhibition at 10 µM came to 85% at B1R of the rat (setting [3]) and 100% on human B1R (setting [4]).

As to `CN(C)CCC1(c2cccnc2)CCN(C(=O)CC(NS(=O)(=O)c2ccc3ccccc3c2)c2ccccc2)CC1` (stereo not shown) [Example 7, N-(3-(4-(2-(Dimethylamino)ethyl)-4-(pyridin-3-yl)piperidin-1-yl)-3-oxo-1-phenylpropyl)naphthalene-2-sulfonamide], the inhibition at 10 µM on B1R of the rat (setting [3]) worked out at 37%; at human B1R (setting [4]), 89%.

Consider `COc1cc(C)c(S(=O)(=O)N2CCCCC2COCC(=O)N2CCC(CCN(C)C)(c3cccnc3)CC2)c(C)c1` (stereo not shown) [Example 8, 1-(4-(2-(Dimethylamino)ethyl)-4-(pyridin-3-yl)piperidin-1-yl)-2-((1-(4-methoxy-2,6-dimethylphenylsulfonyl)piperidin-2-yl)methoxy)ethanone], for which the inhibition at 10 µM at B1R of the rat (setting [3]) came to 102%; at human B1R (setting [4]), 104%.

For `COc1cc(C)c(S(=O)(=O)N(C)CCOCC(=O)N2CCC(CCN(C)C)(c3cccnc3)CC2)c(C)c1` [Example 9, N-(2-(2-(4-(2-(Dimethylamino)ethyl)-4-(pyridin-3-yl)piperidin-1-yl)-2-oxoethoxy)ethyl)-4-methoxy-N,2,6-trimethylbenzenesulfonamide], the inhibition at 10 µM was 102% at B1R of the rat (setting [3]) and 104% at human B1R (setting [4]).

Consider `CN(C)CCC1(c2cccnc2)CCN(C(=O)CC2CCCCN2S(=O)(=O)c2cccc(C(F)(F)F)c2)CC1` (stereo not shown) [Example 10, 1-(4-(2-(Dimethylamino)ethyl)-4-(pyridin-3-yl)piperidin-1-yl)-2-(1-(3-(trifluoromethyl)phenylsulfonyl)piperidin-2-yl)ethanone], for which the inhibition at 10 µM is 65% at B1R of the rat (setting [3]) and 103% on human B1R (setting [4]).

With `Cc1cc(S(=O)(=O)N2CCCCC2CCC(=O)N2CCC(CCN(C)C)(c3cccnc3)CC2)c(C)cc1Cl` (stereo not shown) [Example 11, 3-(1-(4-Chloro-2,5-dimethylphenylsulfonyl)piperidin-2-yl)-1-(4-(2-(dimethylamino)ethyl)-4-(pyridin-3-yl)piperidin-1-yl)propan-1-one], the values for the inhibition at 10 µM at B1R of the rat (setting [3]) and on human B1R (setting [4]) were 101% and 102%, respectively.

As for `CN(C)CCC1(c2cccnc2)CCN(C(=O)COCC2CCc3ccccc3N2S(=O)(=O)c2ccc(Cl)c(Cl)c2)CC1` (stereo not shown) [Example 12, 2-((1-(3,4-Dichlorophenylsulfonyl)-1,2,3,4-tetrahydroquinolin-2-yl)methoxy)-1-(4-(2-(dimethylamino)ethyl)-4-(pyridin-3-yl)piperidin-1-yl)ethanone], the inhibition at 10 µM at B1R of the rat (setting [3]) was found to be 90%; at human B1R (setting [4]) it was 103%.

As to `COc1cc(C)c(S(=O)(=O)N(C)CCOCC(=O)N2CCC(CCCN3CCCC3)(c3cccnc3)CC2)c(C)c1` [Example 13, 4-Methoxy-N,2,6-trimethyl-N-(2-(2-oxo-2-(4-(pyridin-3-yl)-4-(3-(pyrrolidin-1-yl)propyl)piperidin-1-yl)ethoxy)ethyl)benzenesulfonamide], the inhibition at 10 µM at B1R of the rat (setting [3]) came out at 101%; on human B1R (setting [4]), 97%.

In the case of `O=C(CC1CCCCN1S(=O)(=O)c1cccc(C(F)(F)F)c1)N1CCC(CCCN2CCCC2)(c2cccnc2)CC1` (stereo not shown) [Example 14, 1-(4-(Pyridin-3-yl)-4-(3-(pyrrolidin-1-yl)propyl)piperidin-1-yl)-2-(1-(3-(trifluoromethyl)phenylsulfonyl)piperidin-2-yl)ethanone], the inhibition at 10 µM on B1R of the rat (setting [3]) turned out to be 64%; at human B1R (setting [4]), 35%.

Turning to `Cc1cc(S(=O)(=O)N2CCCCC2CCC(=O)N2CCC(CCCN3CCCC3)(c3cccnc3)CC2)c(C)cc1Cl` (stereo not shown) [Example 15, 3-(1-(4-Chloro-2,5-dimethylphenylsulfonyl)piperidin-2-yl)-1-(4-(pyridin-3-yl)-4-(3-(pyrrolidin-1-yl)propyl)piperidin-1-yl)propan-1-one], the inhibition at 10 µM is 76% at B1R of the rat (setting [3]) and 84% on human B1R (setting [4]).
